Test results taken from ChEMBL document CHEMBL1269004, “Synthesis of a 6-methyl-7-deaza analogue of adenosine that potently inhibits replication of polio and dengue viruses” (J Med Chem, 2010).

How the values were obtained:
Assay type in all cases: functional, HeLa S3
Enterovirus C [1] = test system: Enterovirus C
Enterovirus C [2] = test system: Enterovirus C; remark: listed apart in the source
Enterovirus C [3] = test system: Enterovirus C; remark: listed apart in the source
Enterovirus C [4] = test system: Enterovirus C; remark: listed apart in the source
Enterovirus C [5] = test system: Enterovirus C; remark: listed apart in the source
Enterovirus C [6] = test system: Enterovirus C; remark: listed apart in the source

Cc1ncnc2c1ncn2[C@@H]1O[C@H](CO)[C@@H](O)[C@H]1O
PFU (Enterovirus C [1]): 22 | PFU (Enterovirus C [2]): 12

Cc1ncnc2c1ccn2[C@@H]1O[C@H](CO)[C@@H](O)[C@H]1O
PFU (Enterovirus C [3]): 17 | PFU (Enterovirus C [4]): 19

NC(=O)c1ncn([C@@H]2O[C@H](CO)[C@@H](O)[C@H]2O)n1 [RIBAVIRIN]
PFU (Enterovirus C [5]): 150 | PFU (Enterovirus C [6]): >250
